Test results: article PMC10952572, “Improved PIEZO1 agonism through 4‐benzoic acid modification of Yoda1” (British Journal of Pharmacology, 2023)

Key:
hPIEZO1 = molecular target: T1, hPIEZO1 (Homo sapiens, UniProt Q92508); test: Intracellular Ca2+ measurement (Fura-2) in hPIEZO1-TREx cells; assay type: cell-based; conditions: for Peak ΔCa2+i (ΔF340/380), median fold difference compared to Yoda1: 10 μM compound, hPIEZO1-TREx cells, paired with 10 μM Yoda1; for Ability to evoke intracellular Ca2+ elevation: 10 μM, cells overexpressing hPIEZO1, compared with Yoda1
T1 construct: expressed in transfected cells
T1 sequence (Q92508 whole entry): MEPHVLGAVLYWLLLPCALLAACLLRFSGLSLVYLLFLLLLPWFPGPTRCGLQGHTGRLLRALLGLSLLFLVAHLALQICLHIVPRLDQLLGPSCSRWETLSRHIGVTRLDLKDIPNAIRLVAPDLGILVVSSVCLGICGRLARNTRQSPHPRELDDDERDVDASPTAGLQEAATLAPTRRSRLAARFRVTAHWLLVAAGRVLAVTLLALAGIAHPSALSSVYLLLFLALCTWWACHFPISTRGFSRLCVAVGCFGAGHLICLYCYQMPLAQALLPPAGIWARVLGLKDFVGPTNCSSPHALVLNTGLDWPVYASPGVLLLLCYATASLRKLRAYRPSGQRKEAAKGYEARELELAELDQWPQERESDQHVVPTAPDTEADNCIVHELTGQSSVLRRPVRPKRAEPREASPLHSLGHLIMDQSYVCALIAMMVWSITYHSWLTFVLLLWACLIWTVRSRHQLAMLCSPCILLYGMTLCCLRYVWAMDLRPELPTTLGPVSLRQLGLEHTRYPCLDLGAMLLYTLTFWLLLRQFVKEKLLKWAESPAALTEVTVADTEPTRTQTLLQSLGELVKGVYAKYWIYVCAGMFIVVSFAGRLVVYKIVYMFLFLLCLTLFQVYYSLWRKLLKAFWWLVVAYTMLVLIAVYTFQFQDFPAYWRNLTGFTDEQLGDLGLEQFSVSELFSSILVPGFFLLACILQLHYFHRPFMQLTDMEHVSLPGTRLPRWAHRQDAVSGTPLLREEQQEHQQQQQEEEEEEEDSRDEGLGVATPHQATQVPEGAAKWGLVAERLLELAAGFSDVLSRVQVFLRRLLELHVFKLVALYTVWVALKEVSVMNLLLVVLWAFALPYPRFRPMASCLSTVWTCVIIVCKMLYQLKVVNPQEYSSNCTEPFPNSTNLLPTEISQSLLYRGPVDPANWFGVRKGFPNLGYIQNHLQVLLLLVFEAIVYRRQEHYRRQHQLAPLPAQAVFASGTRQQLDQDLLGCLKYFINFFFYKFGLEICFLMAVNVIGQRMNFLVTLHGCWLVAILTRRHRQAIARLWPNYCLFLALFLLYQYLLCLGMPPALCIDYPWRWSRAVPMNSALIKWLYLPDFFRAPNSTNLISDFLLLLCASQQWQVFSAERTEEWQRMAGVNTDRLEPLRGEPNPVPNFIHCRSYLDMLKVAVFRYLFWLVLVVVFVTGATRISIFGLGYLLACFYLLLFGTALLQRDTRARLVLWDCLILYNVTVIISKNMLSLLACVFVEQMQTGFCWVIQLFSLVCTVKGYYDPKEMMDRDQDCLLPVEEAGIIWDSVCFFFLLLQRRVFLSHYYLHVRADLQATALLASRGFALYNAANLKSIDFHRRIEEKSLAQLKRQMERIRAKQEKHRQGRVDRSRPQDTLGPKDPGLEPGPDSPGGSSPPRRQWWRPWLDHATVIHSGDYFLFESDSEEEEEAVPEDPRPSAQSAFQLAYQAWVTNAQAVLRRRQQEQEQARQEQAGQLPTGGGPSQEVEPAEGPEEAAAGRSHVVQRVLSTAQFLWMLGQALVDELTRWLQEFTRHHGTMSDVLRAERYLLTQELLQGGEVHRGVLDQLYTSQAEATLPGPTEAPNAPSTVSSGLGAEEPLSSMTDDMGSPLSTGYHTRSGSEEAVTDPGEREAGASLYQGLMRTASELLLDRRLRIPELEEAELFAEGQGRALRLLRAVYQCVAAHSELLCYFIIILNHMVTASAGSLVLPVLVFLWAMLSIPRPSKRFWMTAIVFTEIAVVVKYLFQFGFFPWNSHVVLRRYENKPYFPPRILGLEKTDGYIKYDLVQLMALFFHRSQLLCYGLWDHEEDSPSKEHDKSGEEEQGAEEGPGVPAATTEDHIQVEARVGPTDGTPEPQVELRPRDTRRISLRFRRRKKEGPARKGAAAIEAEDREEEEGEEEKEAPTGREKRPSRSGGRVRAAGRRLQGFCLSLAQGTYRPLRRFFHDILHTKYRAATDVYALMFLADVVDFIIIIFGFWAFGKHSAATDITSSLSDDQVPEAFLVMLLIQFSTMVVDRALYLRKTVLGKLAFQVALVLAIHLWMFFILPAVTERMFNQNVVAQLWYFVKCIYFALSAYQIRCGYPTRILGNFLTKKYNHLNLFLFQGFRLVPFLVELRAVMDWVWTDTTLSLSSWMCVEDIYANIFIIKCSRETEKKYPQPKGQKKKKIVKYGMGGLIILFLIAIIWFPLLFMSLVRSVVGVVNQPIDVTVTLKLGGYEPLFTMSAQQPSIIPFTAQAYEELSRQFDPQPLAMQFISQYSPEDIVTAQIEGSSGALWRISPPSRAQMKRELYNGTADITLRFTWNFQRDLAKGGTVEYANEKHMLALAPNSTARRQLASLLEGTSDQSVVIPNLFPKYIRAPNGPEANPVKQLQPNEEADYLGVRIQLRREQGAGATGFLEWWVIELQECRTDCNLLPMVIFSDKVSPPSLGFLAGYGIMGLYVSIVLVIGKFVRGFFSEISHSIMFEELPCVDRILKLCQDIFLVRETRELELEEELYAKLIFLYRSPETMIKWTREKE
Source text: HEK T‐REx™ 293 cells (Thermo Fisher Cat #R71007, RRID:CVCL_D585) that overexpress hPIEZO1 upon induction with tetracycline were generated as previously described (Rode et al., [2017]). PIEZO1‐GFP was used as a PCR template to clone hPIEZO1 coding sequence into pcDNA™4/TO between HindIII and EcoRI restriction sites. PIEZO1 was amplified as two fragments using the following primers: (HindIII‐PIEZO1‐Fw: […] and BamHI‐Int.PIEZO1‐Rv: […]) and (BamHI‐Int. PIEZO1‐Fw: […] and EcoRI‐PIEZO1‐Rv: […]). The two fragments were fused using BamHI restriction site, resulting in the full‐length PIEZO1 coding sequence with the c4182a silent mutation. HEK T‐REx™ 293 cells (Invitrogen) were transfected with pcDNA4/TO‐PIEZO1 using Lipofectamine 2000 (Thermo Fisher Scientific). Subsequently, cells were treated with 10 μg·ml^−1 blasticidin and 200 μg·ml^−1 zeocin (InvivoGen) to select stably transfected cells. Single‐cell clones were isolated and analysed individually. Expression was induced by treating the cells for 24 h with 10 ng·ml^−1 tetracycline and analysed by quantitative RT‐PCR and Western blot. These cells are referred to as hPIEZO1‐TREx.
(§1) HEK 293‐TREx cells and their stably transfected derivatives or transiently transfected HEK 293 or HeLa cells were seeded at a density of 7.5 × 10^4 cells per well into poly‐D‐lysine‐coated 96‐well plates. The plates were either commercially pre‐coated with poly‐D‐lysine (Greiner Bio‐One #655946) or (Greiner Bio‐One #655090) were coated in‐house with 35 μl of a 10 μg·ml^−1 poly‐D‐lysine (Bio‐Techne, Cultrex # 3439‐100‐01) in sterile deionised water per well for at least 24 h and rinsed three times with 100 μl per well sterile D‐PBS before addition of cells. HUVECs were seeded into tissue culture‐treated 96‐well plates (Greiner Bio‐One #655090) at a density of either 2.5 × 10^4 cells 24 h before experimentation or 1.25 × 10^4 cells 48 h before experimentation. Cells were incubated with 2 μM Fura‐2‐AM (Molecular Probes™) in the presence of 0.01% (wt./vol.) pluronic F127 (Sigma‐Aldrich #P2443) in standard bath solution (SBS) for 1 h at 37°C. Cells were washed with SBS for 30 min at room temperature. Alternatively, if inhibitors were being tested, these were added at this time, immediately following a wash in SBS. (−)‐Englerin A (Akbulut et al., [2015]) was used in SBS containing 0.01% pluronic acid as a dispersing agent to minimise aggregation of compound. Unless otherwise stated, the final concentration of DMSO was 0.2% (vol./vol). Working 2000× stock solutions of test compounds were freshly made in DMSO and diluted 1000‐fold in SBS during the 30 min SBS wash/inhibitor pre‐incubation period to obtain 2× solutions for injection. When testing the highest concentration of Yoda1, KC159 and KC289 (30 μM), the final DMSO concentration was 0.6% (vol./vol.). Measurements were made at room temperature on a 96‐well fluorescence plate reader (FlexStation 3, Molecular Devices, Sunnyvale, CA, USA) controlled by SoftMax Pro software v7.0.3. Recipient wells containing 80 μl SBS/0.2% (vol./vol.) DMSO vehicle or inhibitor compound received 80 μl 2× compound at an injection rate of 1 μl·s^−1, and the pipette introduced liquids from a height setting of 70 μl. No trituration was performed. For recordings using Fura‐2, the change in intracellular Ca was indicated as the ratio of Fura‐2 emission (510 nm) intensities at 340 and 380 nm excitation. Photomultipliers were set to medium sensitivity. SBS contained 130 mM NaCl, 5 mM KCl, 8 mM D‐glucose, 10 mM HEPES, 1.2 mM MgCl2 and 1.5 mM CaCl2, and the pH was adjusted to 7.4 with NaOH. The solution was filtered through a 0.2 μm bottle‐top filter prior to use and handled aseptically thereafter.
For intracellular Ca^2+ (Ca^2+i) measurements, technical intra‐experiment replicates were used to improve confidence in the data. Analysis of individual experiments was performed to obtain mean ± SEM values. […]

mPIEZO1 = molecular target: T2, mPIEZO1 (Mus musculus, UniProt E2JF22); test: Pre-treatment with analogue before Yoda1 stimulus, Ca2+ assay in mPIEZO1-TREx cells; assay type: cell-based; conditions: for 0.5 μM Yoda1-evoked peak ΔCa2+i (ΔF340/380), median fold difference compared to DMSO pretreatment: mPIEZO1-TREx, 10 μM compound 30 min pretreatment before 0.5 μM Yoda1
T2 construct: expressed in transfected cells
T2 sequence (E2JF22 whole entry): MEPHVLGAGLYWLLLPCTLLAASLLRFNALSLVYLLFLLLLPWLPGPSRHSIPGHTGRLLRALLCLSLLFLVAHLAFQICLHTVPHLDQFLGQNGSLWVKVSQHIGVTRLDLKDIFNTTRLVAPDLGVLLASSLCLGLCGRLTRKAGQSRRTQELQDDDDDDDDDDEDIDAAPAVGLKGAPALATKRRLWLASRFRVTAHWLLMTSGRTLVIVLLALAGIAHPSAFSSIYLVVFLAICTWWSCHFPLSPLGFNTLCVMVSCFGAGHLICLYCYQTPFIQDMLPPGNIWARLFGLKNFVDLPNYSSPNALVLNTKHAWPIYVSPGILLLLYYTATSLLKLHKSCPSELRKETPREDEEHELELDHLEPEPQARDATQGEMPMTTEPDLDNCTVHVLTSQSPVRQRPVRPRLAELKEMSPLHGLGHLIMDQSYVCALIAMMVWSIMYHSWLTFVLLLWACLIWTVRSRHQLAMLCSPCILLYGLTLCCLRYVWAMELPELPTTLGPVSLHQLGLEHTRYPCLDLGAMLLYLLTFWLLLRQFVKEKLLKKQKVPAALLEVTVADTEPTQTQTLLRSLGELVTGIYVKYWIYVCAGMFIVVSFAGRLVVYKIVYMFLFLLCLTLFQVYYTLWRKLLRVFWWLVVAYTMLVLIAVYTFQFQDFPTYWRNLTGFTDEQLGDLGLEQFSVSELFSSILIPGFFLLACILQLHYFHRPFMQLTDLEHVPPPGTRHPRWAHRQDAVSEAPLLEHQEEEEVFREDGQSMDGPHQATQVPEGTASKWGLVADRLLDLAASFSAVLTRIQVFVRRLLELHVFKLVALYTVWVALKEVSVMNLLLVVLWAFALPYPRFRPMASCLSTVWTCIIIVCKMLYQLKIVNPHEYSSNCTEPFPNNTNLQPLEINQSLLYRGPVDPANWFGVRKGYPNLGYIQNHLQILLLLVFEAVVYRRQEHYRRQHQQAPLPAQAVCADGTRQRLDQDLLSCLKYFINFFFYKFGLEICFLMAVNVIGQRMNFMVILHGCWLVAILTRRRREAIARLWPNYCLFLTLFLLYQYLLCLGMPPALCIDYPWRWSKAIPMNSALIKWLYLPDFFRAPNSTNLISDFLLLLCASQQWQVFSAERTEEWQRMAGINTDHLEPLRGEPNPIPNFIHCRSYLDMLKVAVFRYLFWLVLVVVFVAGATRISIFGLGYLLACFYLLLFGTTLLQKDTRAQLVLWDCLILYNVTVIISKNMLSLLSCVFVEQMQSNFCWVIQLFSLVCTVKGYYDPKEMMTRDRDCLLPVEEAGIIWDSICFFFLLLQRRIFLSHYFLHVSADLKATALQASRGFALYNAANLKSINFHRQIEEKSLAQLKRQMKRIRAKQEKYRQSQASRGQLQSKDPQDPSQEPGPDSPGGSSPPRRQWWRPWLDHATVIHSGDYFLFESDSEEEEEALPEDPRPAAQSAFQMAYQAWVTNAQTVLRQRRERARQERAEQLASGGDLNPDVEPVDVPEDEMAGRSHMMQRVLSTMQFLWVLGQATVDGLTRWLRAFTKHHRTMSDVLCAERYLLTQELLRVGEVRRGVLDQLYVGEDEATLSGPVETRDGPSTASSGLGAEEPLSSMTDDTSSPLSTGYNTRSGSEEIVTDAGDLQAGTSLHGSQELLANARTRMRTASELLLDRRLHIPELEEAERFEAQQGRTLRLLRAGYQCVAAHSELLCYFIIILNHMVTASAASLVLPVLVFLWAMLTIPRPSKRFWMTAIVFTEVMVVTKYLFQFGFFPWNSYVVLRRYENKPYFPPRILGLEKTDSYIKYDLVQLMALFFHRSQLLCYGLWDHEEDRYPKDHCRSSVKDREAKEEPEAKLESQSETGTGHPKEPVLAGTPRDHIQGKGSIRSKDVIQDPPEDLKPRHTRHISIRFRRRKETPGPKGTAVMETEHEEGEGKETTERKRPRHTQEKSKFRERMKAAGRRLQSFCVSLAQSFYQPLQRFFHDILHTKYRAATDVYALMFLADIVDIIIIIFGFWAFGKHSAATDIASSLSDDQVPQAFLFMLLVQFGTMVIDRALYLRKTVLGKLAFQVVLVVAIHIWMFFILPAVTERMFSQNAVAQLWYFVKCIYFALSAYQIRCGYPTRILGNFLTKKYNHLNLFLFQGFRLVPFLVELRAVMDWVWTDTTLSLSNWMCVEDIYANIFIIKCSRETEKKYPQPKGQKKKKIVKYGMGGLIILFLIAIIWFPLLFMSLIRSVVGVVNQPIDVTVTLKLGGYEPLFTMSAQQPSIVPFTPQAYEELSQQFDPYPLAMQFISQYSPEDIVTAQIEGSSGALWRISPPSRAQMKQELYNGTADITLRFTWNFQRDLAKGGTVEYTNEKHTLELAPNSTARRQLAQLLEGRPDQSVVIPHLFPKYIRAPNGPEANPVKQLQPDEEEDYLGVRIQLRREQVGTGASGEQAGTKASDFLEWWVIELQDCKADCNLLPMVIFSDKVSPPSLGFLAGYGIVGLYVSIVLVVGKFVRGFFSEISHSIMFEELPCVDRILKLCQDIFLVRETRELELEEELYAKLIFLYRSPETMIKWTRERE

Stability in plasma = assay type: in vitro ADME; conditions: mouse plasma, 1 μM, over 2 h
Method: Pooled heparinised mouse plasma was warmed to 37°C for 10 min, mixed and cleared of aggregated protein by centrifugation. Aliquots of the clear supernatant were transferred into the assay plate. Following equilibration to 37°C, biotransformation was initiated by adding and mixing of 1 μM compound solution in a final incubation volume of 300 μl; 25 μl aliquots were removed at 0, 5, 15, 30, 60 and 120 min and quenched in 300 μl ice‐cold acetonitrile containing internal standard. After storing the samples at −20°C for a minimum of 4 h, the protein in the samples was precipitated by centrifugation at 4°C, and the supernatants were analysed by LC–MS/MS to quantify the % input test compound remaining.

HeLa cells = test: Intracellular Ca2+ measurement in HeLa cells with siRNA knockdown of PIEZO1/PIEZO2; assay type: cell-based, human; conditions: 10 μM; for Ca2+ response after PIEZO1 depletion / Ca2+ response after PIEZO2 depletion: HeLa cells; for Ca2+ response after PIEZO1 depletion: siPIEZO1; for Ca2+ response after PIEZO2 depletion: siPIEZO2
Method: Hela (ATCC Cat #CRM‐CCL‐2, RRID:CVCL_0030) and HEK 293 (ATCC Cat #CRL‐1573, RRID:CVCL_0045) cells were purchased from ATCC and maintained in DMEM supplemented with 10% heat‐inactivated fetal calf serum, 100 U·ml^−1 penicillin and 100 μg·ml^−1 streptomycin (Sigma‐Aldrich).
Cells were transfected using Opti‐MEM™ I Reduced Serum Medium (Thermo Fisher Scientific) and Lipofectamine 2000 (Thermo Fisher Scientific). For transfection of cells in six‐well plates, […] short‐interfering RNA (siRNA) (control siRNA [siCtrl]: Dharmacon ON‐TARGETplus Non‐targeting Control Pool, D‐001810‐10‐05; siRNA targeted to PIEZO2 expression [siPIEZO2]: Dharmacon ON‐TARGETplus SmartPool PIEZO2, L‐013925‐02‐0005; and PIEZO1: Sigma‐Aldrich, GCAAGUUCGUGCGCGGAUU[DT][DT]) and 3 μl of Lipofectamine 2000 complexed in 200 μl of Opti‐MEM were added to 0.8 ml cell culture medium per well. The culture medium was changed 4 h post transfection, and cells were used for experiments 48 h later.
as §1

Row | Inhibition of the action of Yoda1 (mPIEZO1; mPIEZO1 channels, 10 μM for 30 min prior to Yoda1) | SMILES | Peak ΔCa2+i (ΔF340/380), median fold difference compared to Yoda1 (hPIEZO1) | 0.5 μM Yoda1-evoked peak ΔCa2+i (ΔF340/380), median fold difference compared to DMSO pretreatment (mPIEZO1) | Ability to evoke intracellular Ca2+ elevation (hPIEZO1) | Plasma stability (Stability in plasma) | Ca2+ elevations in HeLa cells (HeLa cells) | Ca2+ response after PIEZO1 depletion (HeLa cells) | Ca2+ response after PIEZO2 depletion (HeLa cells)
1 | failed to inhibit the action of Yoda1 | O=C(O)c1ccccc1-c1nnc(SCc2c(Cl)cccc2Cl)s1 [KC157] | −24.4 fold | +1.2 fold | – | – | – | – | –
2 | – | O=C([O-])c1ccc(-c2nnc(SCc3c(Cl)cccc3Cl)s2)cc1.[K+] [KC289] | +2.8 fold | −2.8 fold | robust responses that are larger than those of Yoda1 | good stability over 2 h | evoked Ca^2+ elevations | partly suppressed | partly suppressed
3 | – | Clc1cccc(Cl)c1CSc1nnc(-c2cnccn2)s1 [Yoda1, 2‐[5‐[[(2,6‐dichlorophenyl)methyl]thio]‐1,3,4‐thiadiazol‐2‐yl]pyrazine] | – | – | – | good stability over 2 h | evoked Ca^2+ elevations | partly suppressed | partly suppressed
4 | – | O=C(O)c1ccc(-c2nnc(SCc3c(Cl)cccc3Cl)s2)cc1 [KC159] | +1.8 fold | −2.1 fold | robust responses that are larger than those of Yoda1 | good stability over 2 h | evoked Ca^2+ elevations | partly suppressed | partly suppressed
